The text below walks through data of article PMC11672750, “PfGSTF2 endows resistance to quizalofop‐p‐ethyl in Polypogon fugax by GSH conjugation” (Plant Biotechnology Journal, 2024).

For this assay, the system named is PfGSTF58. The assay can be described thus: absorbance at […] nm, Michaelis-Menten fit. In kind it is biochemical, Polypogon fugax. To be noted: GSH co-substrate; 30 °C.

Each structure is given as a SMILES string.

In the case of `O=[N+]([O-])c1ccc(Cl)c([N+](=O)[O-])c1` [1-chloro-2,4-dinitrobenzene], the Km worked out at 450 ± 90 µM.

For orientation: Km means the concentration of substrate that gives half-maximal velocity.
